Experimental data taken from patent US8921360B2, “Heterobicycle-substituted azolyl benzene fungicides” (priority 2009, dated 2014).

Experiments:
Type in all cases: in vivo
[1] = tested on: Puccinia recondita f sp. tritici; assay: Test B: wheat leaf rust, preventive spray on wheat seedlings; conditions: Puccinia recondita, 192 h, wheat seedlings sprayed to run-off, inoculated next day, rated after 24 h + 7 days, read-out: Percentage Disease Control Test B
Text: General protocol for preparing test suspensions for Tests A-G: the test compounds were first dissolved in acetone in an amount equal to 11% of the final volume and then suspended at the desired concentration (in ppm) in acetone and purified water (50/50 mix by volume) containing 250 ppm of the surfactant Trem® 014 (polyhydric alcohol esters). The resulting test suspensions were then used in Tests A-G. Spraying a 200 ppm test suspension to the point of run-off on the test plants was the equivalent of a rate of 800 g/ha. The test suspension was sprayed to the point of run-off on wheat seedlings. The following day the seedlings were inoculated with a spore suspension of Puccinia recondita f sp. tritici (the causal agent of wheat leaf rust) and incubated in a saturated atmosphere at 20° C. for 24 h, and then moved to a growth chamber at 20° C. for 7 days, after which time disease ratings were visually made. Results for Tests A-G are given in Table A. In the Table, a rating of 100 indicates 100% disease control and a rating of 0 indicates no disease control (relative to the controls). A dash (-) indicates no test results. All results are for 200 ppm except where followed by an “*”, which indicates 40 ppm.

[2] = tested on: Puccinia recondita f. sp. tritici; assay: Test C: wheat leaf rust, spray the day after inoculation of wheat seedlings; conditions: Puccinia recondita, 120 h, wheat seedlings inoculated, sprayed the following day, rated after 5 days, read-out: Percentage Disease Control Test C;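 further: Curative spray on infected wheat seedlings with visual rating 5 days later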
Text: General protocol for preparing test suspensions for Tests A-G: the test compounds were first dissolved in acetone in an amount equal to 11% of the final volume and then suspended at the desired concentration (in ppm) in acetone and purified water (50/50 mix by volume) containing 250 ppm of the surfactant Trem® 014 (polyhydric alcohol esters). The resulting test suspensions were then used in Tests A-G. Spraying a 200 ppm test suspension to the point of run-off on the test plants was the equivalent of a rate of 800 g/ha. Wheat seedlings were inoculated with a spore suspension of Puccinia recondita f. sp. tritici (the causal agent of wheat leaf rust) and incubated in a saturated atmosphere at 20° C. for 24 h. The following day, the test suspension was sprayed to the point of run-off on the wheat seedlings and then moved to a growth chamber at 20° C. for 5 days, after which time disease ratings were visually made. Results for Tests A-G are given in Table A. In the Table, a rating of 100 indicates 100% disease control and a rating of 0 indicates no disease control (relative to the controls). A dash (-) indicates no test results. All results are for 200 ppm except where followed by an “*”, which indicates 40 ppm.

Botrytis cinerea = assay: Test F: tomato botrytis, preventive spray on tomato seedlings; conditions: Botrytis cinerea, topical, 120 h, tomato seedlings sprayed to run-off, inoculated next day, rated after 48 h + 3 days, read-out: Percentage Disease Control Test F
Text: General protocol for preparing test suspensions for Tests A-G: the test compounds were first dissolved in acetone in an amount equal to 11% of the final volume and then suspended at the desired concentration (in ppm) in acetone and purified water (50/50 mix by volume) containing 250 ppm of the surfactant Trem® 014 (polyhydric alcohol esters). The resulting test suspensions were then used in Tests A-G. Spraying a 200 ppm test suspension to the point of run-off on the test plants was the equivalent of a rate of 800 g/ha. The test suspension was sprayed to the point of run-off on tomato seedlings. The following day the seedlings were inoculated with a spore suspension of Botrytis cinerea (the causal agent of tomato botrytis) and incubated in saturated atmosphere at 20° C. for 48 h, and then moved to a growth chamber at 27° C. for 3 additional days, after which time disease ratings were visually made. Results for Tests A-G are given in Table A. In the Table, a rating of 100 indicates 100% disease control and a rating of 0 indicates no disease control (relative to the controls). A dash (-) indicates no test results. All results are for 200 ppm except where followed by an “*”, which indicates 40 ppm.

Septoria tritici = assay: Test E: wheat leaf blotch, preventive spray on wheat seedlings; conditions: Zymoseptoria tritici, 456 h, wheat seedlings sprayed to run-off, inoculated next day, rated after 48 h + 19 days, read-out: Percentage Disease Control Test E
Text: General protocol for preparing test suspensions for Tests A-G: the test compounds were first dissolved in acetone in an amount equal to 11% of the final volume and then suspended at the desired concentration (in ppm) in acetone and purified water (50/50 mix by volume) containing 250 ppm of the surfactant Trem® 014 (polyhydric alcohol esters). The resulting test suspensions were then used in Tests A-G. Spraying a 200 ppm test suspension to the point of run-off on the test plants was the equivalent of a rate of 800 g/ha. The test suspension was sprayed to the point of run-off on wheat seedlings. The following day the seedlings were inoculated with a spore suspension of Septoria tritici (the causal agent of wheat leaf blotch) and incubated in a saturated atmosphere at 24° C. for 48 h, and then moved to a growth chamber at 20° C. for 19 days, after which time disease ratings were visually made. Results for Tests A-G are given in Table A. In the Table, a rating of 100 indicates 100% disease control and a rating of 0 indicates no disease control (relative to the controls). A dash (-) indicates no test results. All results are for 200 ppm except where followed by an “*”, which indicates 40 ppm.

[3] = tested on: Erysiphe graminis f. sp. tritici; assay: Test A: wheat powdery mildew, preventive spray on wheat seedlings; conditions: Blumeria graminis, 192 h, wheat seedlings sprayed to run-off, inoculated next day, rated after 8 days, 100 = 100% disease control, 0 = no control, read-out: Percentage Disease Control Test A
Text: General protocol for preparing test suspensions for Tests A-G: the test compounds were first dissolved in acetone in an amount equal to 11% of the final volume and then suspended at the desired concentration (in ppm) in acetone and purified water (50/50 mix by volume) containing 250 ppm of the surfactant Trem® 014 (polyhydric alcohol esters). The resulting test suspensions were then used in Tests A-G. Spraying a 200 ppm test suspension to the point of run-off on the test plants was the equivalent of a rate of 800 g/ha. The test suspension was sprayed to the point of run-off on wheat seedlings. The following day the seedlings were inoculated with a spore dust of Erysiphe graminis f. sp. tritici, (the causal agent of wheat powdery mildew) and incubated in a growth chamber at 20° C. for 8 days, after which time disease ratings were visually made. Results for Tests A-G are given in Table A. In the Table, a rating of 100 indicates 100% disease control and a rating of 0 indicates no disease control (relative to the controls). A dash (-) indicates no test results. All results are for 200 ppm except where followed by an “*”, which indicates 40 ppm.

| SMILES | pest or weed control at 200 ppm [1] [%] | pest or weed control at 200 ppm [2] [%] | pest or weed control at 200 ppm (Botrytis cinerea) [%] | pest or weed control at 40 ppm (Septoria tritici; 40 ppm (value followed by *)) [%] | pest or weed control at 200 ppm [3] [%] | pest or weed control at 200 ppm (Septoria tritici) [%] |
| --- | --- | --- | --- | --- | --- | --- |
| CC(=O)NCc1cc(-c2ccn(-c3ccc4c(c3)CCCO4)n2)ccc1Cl [Compound 2, N-[[2-chloro-5-[1-(3,4-dihydro-2H-1-benzopyran-6-yl)-1H-pyrazol-3-yl]-phenyl]methyl]acetamide] | 100 | 88 | 0 | 97 | 84 | – |
| COC(=O)NCc1cc(-c2ccn(-c3ccc4c(c3)CC(O)CO4)n2)ccc1Cl (centres unmarked) [Compound 30, methyl N-[[2-chloro-5-[1-(3,4-dihydro-3-hydroxy-2H-1-benzopyran-6-yl)-1H-pyrazol-3-yl]phenyl]methyl]carbamate] | 100 | 9 | 0 | – | 98 | 78 |
| COC(=O)NCc1cc(-n2ccc(-c3ccc4c(c3)OCO4)n2)ccc1Cl [Compound 6, methyl N-[[5-[3-(1,3-benzodioxol-5-yl)-1H-pyrazol-1-yl]-2-chlorophenyl]-methyl]carbamate] | 100 | 100 | 91 | – | 100 | 99 |
| COC(=O)NCc1cc(-c2ccn(-c3ccc4c(c3)CC3(CO4)OCCO3)n2)ccc1Cl [Compound 28, methyl N-[[2-chloro-5-(1-spiro[2H-1-benzopyran-3(4H), 2′-[1,3]dioxolan]-6-yl-1H-pyrazol-3-yl)phenyl]methyl]carbamate] | 100 | 100 | 0 | – | 99 | 93 |
| CNC(=O)NCc1cc(-c2ccn(-c3ccc4c(c3)CCCO4)n2)ccc1Cl [Compound 4, N-[[2-chloro-5-[1-(3,4-dihydro-2H-1-benzopyran-6-yl)-1H-pyrazol-3-yl]-phenyl]methyl]-N′-methylurea] | 97 | 53 | 0 | – | 0 | 0 |
| COC(=O)NCc1cc(-c2ccn(-c3ccc4c(c3)CCCO4)n2)ccc1F [Compound 12, methyl N-[[5-[1-(3,4-dihydro-2H-1-benzopyran-6-yl)-1H-pyrazol-3-yl]-2-fluorophenyl]methyl]carbamate] | 100 | 100 | 0 | – | 100 | 100 |
| COC(=O)NCc1cc(-c2ccn(-c3ccc4c(c3)C=C(C(=O)O)CO4)n2)ccc1Cl [Compound 24, 6-[3-[4-chloro-3-[[(methoxycarbonyl)amino]methyl]phenyl]-1H-pyrazol-1-yl]-2H-1-benzopyran-3-carboxylic acid] | 96 | 0 | 0 | – | 0 | 0 |
| COC(=O)NCc1cc(-c2ccn(-c3ccc4c(c3)C=C(C(=O)OC)CO4)n2)ccc1Cl [Compound 23, methyl 6-[3-[4-chloro-3-[[(methoxycarbonyl)amino]methyl]phenyl]-1H-pyrazol-1-yl]-2H-1-benzopyran-3-carboxylate] | 94 | 0 | 0 | – | 0 | 0 |
| COC(=O)NCc1cc(-c2ccn(-c3ccc4c(c3)CCCO4)n2)ccc1C [Compound 20, methyl N-[[5-[1-(3,4-dihydro-2H-1-benzopyran-6-yl)-1H-pyrazol-3-yl]-2-methylphenyl]methyl]carbamate] | 100 | 100 | 95 | – | 99 | 100 |
| COC(=O)NCc1cc(-n2ccc(-c3ccc4c(c3)OCCO4)n2)ccc1Cl [Compound 7, methyl N-[[2-chloro-5-[3-(2,3-dihydro-1,4-benzodioxin-6-yl)-1H-pyrazol-1-yl]-phenyl]methyl]carbamate] | 100 | 100 | 98 | – | 100 | 100 |
| O=CNCc1cc(-c2ccn(-c3ccc4c(c3)CCCO4)n2)ccc1Cl [Compound 3, N-[[2-chloro-5-[1-(3,4-dihydro-2H-1-benzopyran-6-yl)-1H-pyrazol-3-yl]-phenyl]methyl]formamide] | 97 | 0 | 0 | – | 0 | 78 |
| COC(=O)NCc1cc(-n2ccc(-c3ccc4c(c3)CCCO4)n2)ccc1C [Compound 25, methyl N-[[5-[3-(3,4-dihydro-2H-1-benzopyran-6-yl)-1H-pyrazol-1-yl]-2-methylphenyl]methyl]carbamate] | 100 | 100 | 0 | – | 100 | 100 |
| COC(=O)NCc1cc(-n2ccc(-c3ccc4c(c3)CCCO4)n2)ccc1F [Compound 11, methyl N-[[5-[3-(3,4-dihydro-2H-1-benzopyran-6-yl)-1H-pyrazol-1-yl]-2-fluorophenyl]methyl]carbamate] | 100 | 100 | 0 | – | 100 | 100 |
